The results in this text go back to ChEMBL document CHEMBL1146654, “3-(7-Azaindolyl)-4-arylmaleimides as potent, selective inhibitors of glycogen synthase kinase-3” (Bioorg Med Chem Lett, 2004).

The target in assay [1] is Platelet-derived growth factor receptor alpha (Homo sapiens) (UniProt P16234). In words: Inhibition of PDGFRalpha. Also noted: scale not given: the % may be the effect or the level left.
In assay [2] the target is T1, Serine/threonine-protein kinase Chk1 (Homo sapiens) (UniProt O14757).
T1 sequence (whole entry): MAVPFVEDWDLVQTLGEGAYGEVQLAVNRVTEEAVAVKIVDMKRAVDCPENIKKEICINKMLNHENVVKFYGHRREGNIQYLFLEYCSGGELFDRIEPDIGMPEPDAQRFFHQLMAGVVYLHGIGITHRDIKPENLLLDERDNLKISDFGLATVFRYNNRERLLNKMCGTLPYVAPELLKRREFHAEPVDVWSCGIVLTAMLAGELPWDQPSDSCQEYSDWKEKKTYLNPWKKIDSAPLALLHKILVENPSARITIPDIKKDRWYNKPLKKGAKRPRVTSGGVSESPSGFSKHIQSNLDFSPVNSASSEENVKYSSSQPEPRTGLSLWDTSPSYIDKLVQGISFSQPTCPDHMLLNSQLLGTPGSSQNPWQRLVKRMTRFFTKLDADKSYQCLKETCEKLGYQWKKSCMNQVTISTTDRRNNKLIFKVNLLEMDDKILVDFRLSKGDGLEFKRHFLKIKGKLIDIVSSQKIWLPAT
Briefly: Inhibition of Serine/threonine-protein kinase Chk1. The arrangement: scale not given: the % may be the effect or the level left.

For assay [3], the target named is Protein kinase C alpha type (Homo sapiens, UniProt P17252). In words: Inhibitory activity of 10 uM compound against protein kinase C-alpha using histone as substrate.
For assay [4], the target named is Cyclin-dependent kinase 1/cyclin B (Homo sapiens, UniProt P06493). Briefly: Inhibition of Cyclin-dependent kinase 1-cyclin B. It is filed as protein-complex assay.
The target of assay [5] is Cyclin-dependent kinase 5/CDK5 activator 1 (Homo sapiens) (UniProt Q00535+Q15078). In words: Inhibition of Cyclin-dependent kinase 5-p35nck5a. The format is protein-complex assay. The arrangement: scale not given: the % may be the effect or the level left.
The target in assay [6] is Cyclin-dependent kinase 2/cyclin A (Homo sapiens) (UniProt P24941+P20248+P78396). Briefly: Inhibition of Cyclin-dependent kinase 2-cyclin A. The format is protein-complex assay. The arrangement: scale not given: the % may be the effect or the level left.
Assay [7] concerns the target T2, Dual specificity mitogen-activated protein kinase kinase 6 (Homo sapiens) (UniProt P52564).
T2 sequence (whole entry): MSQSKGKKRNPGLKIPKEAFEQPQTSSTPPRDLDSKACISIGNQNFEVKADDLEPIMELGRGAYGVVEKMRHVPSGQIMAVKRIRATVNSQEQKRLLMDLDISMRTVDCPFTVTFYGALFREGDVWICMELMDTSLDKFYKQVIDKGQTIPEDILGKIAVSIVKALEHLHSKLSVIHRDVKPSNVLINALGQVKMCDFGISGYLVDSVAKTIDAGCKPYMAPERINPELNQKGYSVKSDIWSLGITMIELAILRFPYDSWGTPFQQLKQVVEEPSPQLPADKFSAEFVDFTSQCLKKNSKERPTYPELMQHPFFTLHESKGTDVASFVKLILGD
In words: Inhibition of Mitogen activated protein kinase kinase 6. Also noted: scale not given: the % may be the effect or the level left.

In assay [8] the target is Protein kinase C gamma type (Homo sapiens, UniProt P05129). Briefly: Inhibitory activity of 10 uM compound against protein kinase C-gamma using histone as substrate.
The target of assay [9] is Casein kinase II (Homo sapiens) (UniProt P67870+P68400+P19784). Briefly: Inhibition of Casein kinase 2. The format is protein-complex assay. Also noted: scale not given: the % may be the effect or the level left.
In assay [10] the target is Mitogen-activated protein kinase 9 (Homo sapiens) (UniProt P45984). Briefly: Inhibition of c-Jun N-terminal kinase 2-alpha 2. Also noted: scale not given: the % may be the effect or the level left.
Assay [11] concerns the target Insulin-like growth factor 1 receptor (Homo sapiens) (UniProt P08069). Briefly: Inhibition of insulin-like growth factor I receptor. Also noted: scale not given: the % may be the effect or the level left.
Assay [12] has as its target Mitogen-activated protein kinase 3 (Homo sapiens) (UniProt P27361). Briefly: Inhibition of compound against mitogen-activated protein kinase 1. Also noted: scale not given: the % may be the effect or the level left.
Assay [13] concerns the target T3, 3-phosphoinositide-dependent protein kinase 1 (Homo sapiens) (UniProt O15530).
T3 sequence (whole entry): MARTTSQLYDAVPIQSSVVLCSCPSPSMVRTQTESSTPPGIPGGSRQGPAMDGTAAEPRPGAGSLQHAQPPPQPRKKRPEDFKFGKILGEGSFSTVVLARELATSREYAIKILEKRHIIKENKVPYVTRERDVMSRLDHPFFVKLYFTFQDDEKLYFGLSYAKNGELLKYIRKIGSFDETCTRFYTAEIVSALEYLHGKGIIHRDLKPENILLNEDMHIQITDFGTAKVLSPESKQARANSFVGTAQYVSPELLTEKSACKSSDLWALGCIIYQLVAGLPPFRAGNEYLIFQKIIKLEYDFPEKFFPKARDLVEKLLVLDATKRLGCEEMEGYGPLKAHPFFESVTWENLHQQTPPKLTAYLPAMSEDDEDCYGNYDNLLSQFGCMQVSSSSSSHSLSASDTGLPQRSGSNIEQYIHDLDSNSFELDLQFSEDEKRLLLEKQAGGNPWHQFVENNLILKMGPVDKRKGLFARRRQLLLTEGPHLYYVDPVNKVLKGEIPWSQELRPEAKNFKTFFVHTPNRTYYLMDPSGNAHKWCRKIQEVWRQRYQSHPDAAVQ
Briefly: Inhibition of PDK1. Also noted: scale not given: the % may be the effect or the level left.

The target in assay [14] is Serine/threonine-protein kinase Chk2 (Homo sapiens) (UniProt O96017). Briefly: Inhibition of Serine/threonine-protein kinase Chk2. The arrangement: scale not given: the % may be the effect or the level left.
Assay [15] addresses Proto-oncogene tyrosine-protein kinase Src (Homo sapiens) (UniProt P12931). Briefly: Inhibition of c-Src tyrosine kinase. The arrangement: scale not given: the % may be the effect or the level left.
The target of assay [16] is Serine/threonine-protein kinase PAK 2 (Homo sapiens) (UniProt Q13177). Briefly: Inhibition of PAK2. Also noted: scale not given: the % may be the effect or the level left.
The target of assay [17] is Cyclin-dependent kinase 1/cyclin B (Homo sapiens) (UniProt P06493+P14635+Q8WWL7+O95067). Briefly: Inhibition of cyclin-dependent kinase 1-cyclin B. The format is protein-complex assay. Also noted: scale not given: the % may be the effect or the level left.
For the next assay, the species on record is Rattus norvegicus. In words: Inhibition of AMP-activated Protein Kinase. Also noted: scale not given: the % may be the effect or the level left.

Platelet-derived growth factor receptor alpha (Homo sapiens), sequence (P16234 whole entry): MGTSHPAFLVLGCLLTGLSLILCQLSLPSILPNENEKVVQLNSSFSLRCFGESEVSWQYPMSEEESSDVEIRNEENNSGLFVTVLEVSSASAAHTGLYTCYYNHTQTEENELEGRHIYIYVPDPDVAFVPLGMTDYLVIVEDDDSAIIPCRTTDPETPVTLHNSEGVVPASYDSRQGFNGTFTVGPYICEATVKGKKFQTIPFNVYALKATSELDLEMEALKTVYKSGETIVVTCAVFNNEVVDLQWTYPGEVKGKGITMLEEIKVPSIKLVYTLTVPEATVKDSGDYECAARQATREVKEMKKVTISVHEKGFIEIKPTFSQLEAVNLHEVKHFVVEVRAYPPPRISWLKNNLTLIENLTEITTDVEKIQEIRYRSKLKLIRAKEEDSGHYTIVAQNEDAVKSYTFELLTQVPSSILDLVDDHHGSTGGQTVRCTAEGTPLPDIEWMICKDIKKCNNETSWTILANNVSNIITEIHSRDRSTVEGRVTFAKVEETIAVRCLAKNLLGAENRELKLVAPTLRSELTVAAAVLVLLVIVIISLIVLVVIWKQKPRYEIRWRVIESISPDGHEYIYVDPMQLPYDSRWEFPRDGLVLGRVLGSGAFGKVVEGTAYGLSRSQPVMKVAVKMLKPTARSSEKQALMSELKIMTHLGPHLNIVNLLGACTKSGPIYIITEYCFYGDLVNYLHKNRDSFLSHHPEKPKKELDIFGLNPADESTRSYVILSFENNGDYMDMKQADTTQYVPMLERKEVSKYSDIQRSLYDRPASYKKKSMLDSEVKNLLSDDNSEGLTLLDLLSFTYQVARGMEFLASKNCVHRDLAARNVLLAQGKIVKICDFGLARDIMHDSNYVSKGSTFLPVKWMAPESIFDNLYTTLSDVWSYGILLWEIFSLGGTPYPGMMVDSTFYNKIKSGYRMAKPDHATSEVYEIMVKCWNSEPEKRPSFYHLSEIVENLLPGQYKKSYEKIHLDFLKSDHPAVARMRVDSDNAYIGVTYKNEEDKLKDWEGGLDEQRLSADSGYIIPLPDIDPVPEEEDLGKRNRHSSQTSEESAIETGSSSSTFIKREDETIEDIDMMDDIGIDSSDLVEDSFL
Serine/threonine-protein kinase Chk2 (Homo sapiens), sequence (O96017 whole entry): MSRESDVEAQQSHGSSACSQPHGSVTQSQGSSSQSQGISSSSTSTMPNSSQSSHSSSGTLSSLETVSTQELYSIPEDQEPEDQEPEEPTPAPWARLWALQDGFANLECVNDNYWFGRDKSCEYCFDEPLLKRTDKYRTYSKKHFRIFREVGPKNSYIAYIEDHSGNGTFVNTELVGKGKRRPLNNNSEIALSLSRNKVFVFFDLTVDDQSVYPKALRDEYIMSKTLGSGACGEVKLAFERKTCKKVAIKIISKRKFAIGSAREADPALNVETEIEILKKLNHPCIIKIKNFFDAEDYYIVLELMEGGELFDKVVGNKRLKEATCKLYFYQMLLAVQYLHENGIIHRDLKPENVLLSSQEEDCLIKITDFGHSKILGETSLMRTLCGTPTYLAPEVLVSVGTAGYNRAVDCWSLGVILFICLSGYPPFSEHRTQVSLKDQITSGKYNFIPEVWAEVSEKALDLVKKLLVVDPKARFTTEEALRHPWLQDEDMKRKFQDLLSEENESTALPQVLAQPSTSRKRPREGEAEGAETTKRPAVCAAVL
Insulin-like growth factor 1 receptor (Homo sapiens), sequence (P08069 31-736 limits assumed): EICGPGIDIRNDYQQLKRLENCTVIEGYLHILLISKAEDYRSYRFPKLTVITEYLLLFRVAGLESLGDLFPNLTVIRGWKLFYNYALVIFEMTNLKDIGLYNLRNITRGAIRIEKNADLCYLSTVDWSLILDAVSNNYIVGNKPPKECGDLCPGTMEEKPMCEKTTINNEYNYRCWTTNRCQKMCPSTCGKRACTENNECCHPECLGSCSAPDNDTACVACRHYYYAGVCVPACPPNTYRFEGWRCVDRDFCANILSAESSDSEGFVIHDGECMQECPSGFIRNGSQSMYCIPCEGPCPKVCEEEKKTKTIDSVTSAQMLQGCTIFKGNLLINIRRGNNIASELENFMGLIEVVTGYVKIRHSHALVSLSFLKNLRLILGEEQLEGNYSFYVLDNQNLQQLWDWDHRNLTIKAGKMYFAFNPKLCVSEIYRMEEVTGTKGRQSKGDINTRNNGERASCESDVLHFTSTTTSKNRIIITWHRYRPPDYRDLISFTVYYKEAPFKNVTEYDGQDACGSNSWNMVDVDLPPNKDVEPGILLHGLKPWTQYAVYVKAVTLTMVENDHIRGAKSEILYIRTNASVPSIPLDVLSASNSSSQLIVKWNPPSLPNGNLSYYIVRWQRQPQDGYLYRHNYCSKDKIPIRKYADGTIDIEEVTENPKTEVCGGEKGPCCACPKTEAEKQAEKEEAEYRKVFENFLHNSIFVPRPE
Insulin-like growth factor 1 receptor (Homo sapiens), sequence (P08069 741-1367 limits assumed): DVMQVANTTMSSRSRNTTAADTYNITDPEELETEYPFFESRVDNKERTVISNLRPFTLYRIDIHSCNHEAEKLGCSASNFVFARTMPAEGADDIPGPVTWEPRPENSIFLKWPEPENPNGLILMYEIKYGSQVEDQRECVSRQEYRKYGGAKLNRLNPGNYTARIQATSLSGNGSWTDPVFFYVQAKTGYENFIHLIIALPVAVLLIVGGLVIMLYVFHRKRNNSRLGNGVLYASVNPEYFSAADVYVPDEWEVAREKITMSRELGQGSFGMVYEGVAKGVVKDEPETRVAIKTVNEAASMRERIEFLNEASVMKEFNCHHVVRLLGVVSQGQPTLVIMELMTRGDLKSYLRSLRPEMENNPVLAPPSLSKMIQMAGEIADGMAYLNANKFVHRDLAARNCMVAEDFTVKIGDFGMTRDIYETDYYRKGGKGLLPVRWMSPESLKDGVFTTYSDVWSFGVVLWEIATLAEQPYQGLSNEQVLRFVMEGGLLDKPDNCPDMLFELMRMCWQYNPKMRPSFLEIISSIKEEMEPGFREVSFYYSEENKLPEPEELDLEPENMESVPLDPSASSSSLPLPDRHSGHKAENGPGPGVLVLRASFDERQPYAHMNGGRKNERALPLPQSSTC
Mitogen-activated protein kinase 9 (Homo sapiens), sequence (P45984 whole entry, looked up): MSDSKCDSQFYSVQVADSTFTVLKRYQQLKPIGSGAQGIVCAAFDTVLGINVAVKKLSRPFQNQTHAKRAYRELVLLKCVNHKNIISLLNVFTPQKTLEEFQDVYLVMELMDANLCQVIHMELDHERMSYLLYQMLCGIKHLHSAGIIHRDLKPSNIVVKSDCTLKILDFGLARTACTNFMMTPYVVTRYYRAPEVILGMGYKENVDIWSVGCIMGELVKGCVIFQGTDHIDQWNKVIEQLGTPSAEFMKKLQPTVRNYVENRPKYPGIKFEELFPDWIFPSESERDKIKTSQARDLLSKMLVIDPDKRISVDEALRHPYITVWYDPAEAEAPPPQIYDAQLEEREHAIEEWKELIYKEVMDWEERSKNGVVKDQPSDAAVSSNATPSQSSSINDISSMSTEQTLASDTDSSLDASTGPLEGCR

On to `COCCCn1cc(C2=C(c3ccccc3O)C(=O)NC2=O)c2cccnc21`, for which the Activity in assay [1] amounted to 99%; in assay [2], 78%; in [5], 9%; in assay [6], 9%; in assay [7] it was 83%; in assay [9], 93%. The Activity in [10] amounted to 63%; in assay [11], 80%; in assay [12] it was 78%; in [13], 78%; in assay [14], 75%; in assay [15], 99%. The Activity is 94% in assay [16], 9% in assay [17] and 68% in the assay listed under Rattus norvegicus. The inhibition in [3] and in [8] was less than 50% each time. Also, half-maximal inhibition in [4] (IC50) required 700 nM.
Take `COc1ccccc1C1=C(c2cn(CCCNC(=O)OC(C)(C)C)c3ncccc23)C(=O)NC1=O`: the Activity in [1] came to 108%; in assay [2] it was 95%; in [5], 2%; in assay [6], 2%; in assay [7], 95%; in assay [9] it was 103%. The Activity amounted to 84% in assay [10]; 86% in assay [11]; 81% in [12]; 20% in assay [13]; 49% in assay [14]; 74% in [15]. Further, the figures for the Activity (in [16]; in assay [17]; in the assay filed under Rattus norvegicus) were 93%, 3% and 64%, respectively. The inhibition in assay [3] and in assay [8] was less than 50% each time. In assay [4], the IC50 (usually the point on the concentration scale where inhibition reaches its midpoint) came out at 170 nM.
On to `O=C1NC(=O)C(c2cn(CCCO)c3ncccc23)=C1c1ncc(C(F)(F)F)cc1Cl`, for which the Activity in assay [1] was 86%; in assay [2] it was 73%; in assay [5], 25%; in [6], 25%; in assay [7], 86%; in assay [9] it was 56%. In addition, the Activity was 93% in assay [10]; 78% in assay [11]; 66% in [12]; 79% in assay [13]; 92% in [14]; 93% in [15]. Also, the Activity in assay [16] was determined as 78%; in assay [17], 34%; in the assay filed under Rattus norvegicus, 74%. Also, the inhibition in [3] and in [8] was less than 50% in each case. Moreover, in assay [4], the 50% inhibitory concentration (IC50) was determined as 5800 nM.
